The values below are quoted from earlier work in publication PMC9046186, “A distinctive ligand recognition mechanism by the human vasoactive intestinal polypeptide receptor 2” (Nature Communications, 2022).

The test system of data set [1] is VIP1R. To be noted: introduction, Fig. 1a, b; no reference given.
For data set [2], the system named is VIP2R. To be noted: introduction, Fig. 1a, b; no reference given.

As for Vasoactive intestinal peptide [VIP], in data set [1], the “affinity at VIP1R” value is on record as “comparable affinity”. Moreover, the “affinity at VIP2R” value in data set [2] is “comparable affinity”.
Consider “pituitary adenylate cyclase-activating polypeptide [PACAP38]”, for which the “affinity at VIP1R” value in data set [1] is recorded as “comparable affinity”. For the same substance, the “affinity at VIP2R” value in data set [2] is “comparable affinity”.
